# Laboratory results: US11413278B2, “Compounds and methods for promoting stress resistance” (priority 2015, dated 2022)
# Like-named read-outs stand apart in the source and are kept apart here.
# How the values were obtained:
# [1] = test system: WI-38 cells; settings: read-out: Est. ED50; dose response 0.6-20 μM; H2O2-resistance
# [2] = test system: phosphorylated γH2A.X and TP53BP1; assay: DNA damage marker analysis (immuno-staining)
# Description: WI-38 cells were seeded on 96-well plates and cultured for 24 hrs and then incubated with small molecules for another 24 hrs. As the positive control to damage DNA, H2O2 was supplemented at 700 μM final concentration for the last 3 hrs. Cells were washed with phosphate-buffered saline (PBS), fixed with 4% paraformaldehyde and then blocked with 5% normal goat serum (Cell Signaling), plus 0.3% Triton X-100, for 1 hr. Primary antibody cocktail (rabbit anti-phospho-histone γH2A.X (Ser-139), 1:100; anti-phospho-TP53BP1 (Ser-1778), 1:100), prepared in 1% BSA and 0.3% Triton X-100/PBS, was then introduced and incubated overnight at 4 C. Next day, samples were washed with PBS and further incubated with fluorophore-conjugated secondary antibody (1:1,000) for 1 hr in the dark. Samples were then washed and incubated with DAPI dye (Life Technologies) (4 μg/ml final concentration) for the last 10 minutes. Images were collected on an INCell Analyzer 2000 (GE) and analyzed with the Developer software.
# WI-38 cells were seeded (˜8,000 cells per well) on 96-well plates and cultured for 24 hrs and then incubated with small molecules for another 24 hrs. Doxorubicin (300 nM, 24 hrs) and H2O2 (700 μM, 3 hrs) were also introduced as the positive controls to damage DNA. Cells were washed with phosphate-buffered saline (PBS), fixed with 4% paraformaldehyde for 30 min and then blocked with 5% normal goat serum (Cell Signaling) and 0.3% Triton X-100 for 1 hr. Primary antibody cocktail (Cell Signaling, rabbit anti-phospho-histone γH2A.X (Ser-139), 1:100; anti-phospho-TP53BP1 (Ser-1778), 1:100) was prepared in PBS with 1% BSA and 0.3% Triton X-100 and incubated overnight at 4° C. Next day, samples were washed with PBS and further incubated with fluorophore-conjugated secondary antibody (1:1,000) for 1 hr in dark. Samples were then washed and incubated with DAPI dye (Life Technologies) (4 μg/ml final concentration) for 30 minutes. Images were collected on the INCell Analyzer 2000 (10× objective) and analyzed with the Developer Toolbox.
# [3] = test system: FOXO3; assay: qPCR analysis of FOXO3-regulated genes; type: cell-based, human; settings: Homo sapiens, 24 h, Assay 10(m), at 10 uM, qPCR
# Description: (§1) For qPCR analysis, WI-38 cells were treated with small molecules (at 10 μM) (biological quadruplicates) for 24 hrs and processed for RNA isolation and reverse transcription (RT) with the Cells-to-Ct Kit (Life Technologies), following manufacturer's instructions. RT products were diluted with H2O and used for qPCR analysis on an ABI 7300 system (Life Technologies) (technical triplicates). Relative expression levels of target genes were normalized to the genes B2M, PPIA and GAPDH. To knock down the expression of FOXO3 or NRF2, WI-38 cells were transfected, using the RNAiMAX reagents (Life Technologies), with siRNA oligos (at 10 nM final concentration, 10 ml culture medium) for FOXO3 (Life Technologies) or NRF2 (Integrated DNA Technologies) on 10-cm petri dishes for 36 hrs, and then detached and aliquoted onto 96-well (for qPCR analysis) or 384-well plates (for H2O2-stress treatment). ˜24 hrs later, small molecules were introduced and incubated with cells for 24 hrs. Cells were then either processed with the Cells-to-Ct Kit to prepare RT products for qPCR analysis or subjected to H2O2 (700 μM) for 3 hrs and assayed for viability. The knockdown efficiency of FOXO3 or NRF2 was checked at 36 hrs post-transfection and at the end as well.
# (§2) For qPCR analysis, WI-38 cells were treated with small molecules (at 10 μM) (biological quadruplicate) for 24 hrs and processed for RNA isolation and reverse transcription (RT) with the Cells-to-Ct Kit (Life Technologies), following manufacturer's instructions. RT products were diluted with H2O and used for qPCR analysis on a LightCycler 480 system (Roche) (technical triplicates). Relative expression levels of target genes were normalized to the genes B2M, PPIA and GAPDH. To knock down the expression of FOXO3 or NRF2, WI-38 cells were transfected with siRNA oligos (at 10 nM final concentration) for FOXO3 (Life Technologies) or NRF2 on 10-cm petri dish for 36 hrs, and then detached and aliquoted onto 96-well plates. ˜24 hrs later, small molecules were introduced and incubated with cells for 24 hrs. Cells were then processed with the Cells-to-Ct Kit to prepare RT products for qPCR analysis. The knockdown efficiency of FOXO3 or NRF2 was checked at 36 hrs post-transfection and at the end as well.
# Many perturbations that increase lifespan and stress resistance in animals do so in a FOXO-dependent fashion (Kenyon, 2010c). Humans have several FOXO genes, but FOXO3, which promotes stress resistance in mammalian cell culture (Kops et al., 2002; Nemoto and Finkel, 2002; Tran et al., 2003), is the one that has been linked to exceptional longevity in humans (Anselmi et al., 2009; Flachsbart et al., 2009; Li et al., 2009; Pawlikowska et al., 2009; Soerensen et al., 2010; Willcox et al., 2008). FOXO1, in contrast, appears to be responsible for some symptoms of diabetes in mouse models (Cheng and White, 2011). For this reason, applicants have focused on analyzing potential ability of our small molecules to activate FOXO3. […] Another 4 molecules (Gr-7A, Gr-7C, O12 and O23) could induce robust expression (greater than 1.5-fold) of at least 2 FOXO3 target genes.
# [4] = test system: NRF2; assay: qPCR analysis of NRF2-regulated genes; type: cell-based, human; settings: Homo sapiens, 24 h, Assay 12(o), at 10 uM, qPCR
# Description: as §1, §2
# NRF2/SKN-1, the oxidative stress and xenobiotic phase 2 detoxification protein, can extend animal lifespan (Sykiotis and Bohmann, 2008; Tullet et al., 2008). Applicants analyzed these small molecules for their ability to increase the expression of NRF2-regulated genes, including HMOX1 (heme oxygenase (decycling) 1; anti-oxidant), NQO1 (NAD(P)H dehydrogenase, quinone 1; phase 2 detoxification enzyme), GCLC (glutamate-cysteine ligase, catalytic) and GSTM1 (glutathionine S transferase) (Hur and Gray, 2011; Suzuki et al., 2013).
# [5] = test system: human dermal fibroblast (HDF) primary cells; assay: H2O2-resistance in primary human dermal fibroblasts; type: cell-based; settings: YES/NO
# [6] = test system: NRF2; assay: in vitro; type: cell-based, human; settings: 10 uM; YES/NO
# Description: as §1, §2
# Of these, O15 and O20 consistently (in 3 of 3 experiments) required NRF2 to promote H2O2-resistance, and their resistance capacities were reduced by ˜90% on average upon NRF2 knockdown under conditions tested.
# [7] = test system: C. elegans; assay: C. elegans lifespan assays (liquid and plate); type: in vivo, Caenorhabditis elegans; settings: Caenorhabditis elegans, at 66 uM
# [8] = test system: WI-38 cells; assay: Long-term effects on cell viability (5 days, ATP; morphology, PI imaging); type: cell-based; settings: 10 μM; for Luminescence signal for ATP measurement, day-1 Average / Luminescence signal for ATP measurement, day-2 Average / Luminescence signal for ATP measurement, day-3 Average / Luminescence signal for ATP measurement, day-4 Average / Luminescence signal for ATP measurement, day-5 Average: n = 6; for ATP luminescence by day-5 normalized: DMSO ctrl = 100.0%;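 on Luminescence signal for ATP measurement, day-2 Average: compounds at 10 µM with ATP read daily over 5 days of treatment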;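 on Luminescence signal for ATP measurement, day-3 Average: compounds at 10 µM with ATP read daily over 5 days of treatment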;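 on Luminescence signal for ATP measurement, day-4 Average: compounds at 10 µM with ATP read daily over 5 days of treatment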;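 on Luminescence signal for ATP measurement, day-5 Average: compounds at 10 µM with ATP read daily over 5 days of treatment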
# Description: In addition, cell death was scored by PI-imaging on day 2 and day 5 of treatment.
# Applicants introduced molecules (at 10 uM final concentration) to WI-38 fibroblasts and then assayed cell viability (through ATP measurement) everyday, during a course of 5 days of continuous treatment. […] Applicants also examined the morphology and scored cell death (propidium iodide staining) for cells treated with the above molecules. Of these 14 molecules, some appeared to cause cell toxicity. […] Despite the observed long-term toxicity, these molecules are still interesting as they may act as anti-tumor agents in vivo, should they have more pronounced cytotoxicity on highly proliferative tumor cells. When cells were incubated with these molecules for ˜24 hrs and then subject to hydrogen peroxide for 3 hrs, these molecules are all protective. […] Some of these small molecules may be toxic by themselves under certain conditions, but by inducing protective mechanisms, they may trigger “hormesis” and therefore protect cells from oxidative stress.
# [9] = read-out: Induction of FOXO3-regulated genes: GADD45A normalized fold-change
# [10] = read-out: Induction of NRF2-regulated genes: NQO1 normalized fold-change
# [11] = Batch 1, day-0 luminescence = 320956 ± 24708
# [12] = Batch 2, day-0 luminescence = 229312 ± 17487
structure (smiles),measurement,setting,value
Cc1ccc(C(=O)Nc2ccc3ccc4cccnc4c3n2)cc1 [Gr-3D],EC50,[1],4.96 µM
"OO [H2O2, hydrogen peroxide, reference compound]",TP53BP1-positive cells,[2],~45.8±5.1%
same,γH2A.X-positive cells,[2],~50.9±4.2%
COCCCN1Cc2cccc(C(N)=O)c2C1=O [O2],EC50,[1],20 µM
O=C(CC1(O)C(=O)Nc2ccc(Br)cc21)c1ccc(Cl)cc1 (stereo not shown) [O19],fold induction at 10 µM,[3]; [9],0.84
same,fold induction at 10 µM,[4]; [10],1.91
same,EC50,[1],20 µM
same,"Assay 6: H2O2-resistant, at 10 uM, human dermal fibroblast (HDF) primary cells",[5],YES
O=C(O)c1cc(Cl)c(Cl)cc1C(=O)Nc1ccccc1 [O25],EC50,[1],8.5 µM
same,"Assay 6: H2O2-resistant, at 10 uM, human dermal fibroblast (HDF) primary cells",[5],YES
Oc1cc(-c2ccccc2)nc2c(-c3ccc(Cl)cc3)c(Cc3ccccc3)nn12 [O26],fold induction at 10 µM,[3]; [9],3.36
same,fold induction at 10 µM,[3]; read-out: Induction of FOXO3-regulated genes: SESN1 normalized fold-change,2.21
same,fold induction at 10 µM,[3]; read-out: Induction of FOXO3-regulated genes: TXNIP normalized fold-change,1.16
same,Assay 17: NRF2-dependency for H2O2-resistance,[6],YES
same,fold induction at 10 µM,[4]; read-out: Induction of NRF2-regulated genes: GSTM1 normalized fold-change,0.85
same,fold induction at 10 µM,[4]; [10],0.44
same,EC50,[1],20 µM
same,ILS at 66 µM,"[7]; Assay 2(z), 1.0 × 10^9 bacteria/ml, wild type + FuDR (2012 July), read-out: Lifespan assay in liquid",23.9%
same,ILS at 66 µM,"[7]; Assay 3(aa), 2.5 × 10^9 bacteria/ml, wild type + FuDR, read-out: Lifespan assay in liquid",4.6%
same,ILS at 66 µM,"[7]; Assay 4(ab), 2.0 × 10^10 bacteria/ml, CF512 worms, no FuDR, read-out: Lifespan assay on plates",27.1%
same,ILS at 66 µM,"[7]; Assay 5(ac), 1.0 × 10^11 bacteria/ml, CF512 worms, no FuDR, read-out: Lifespan assay on plates",8.3%
Cc1cc(C)n(-c2nc(O)cc(-c3ccccc3)n2)n1 [O28],EC50,[1],5.4 µM
CCCCCCc1cc(C=O)c(O)cc1O [O29],EC50,[1],15.3 µM
CC(C)CCOc1ccc(C(=O)C(CN2CCOCC2)c2ccccc2)cc1 (stereo not shown) [O30],EC50,[1],4.2 µM
Nc1c(Cl)ncnc1NCCCn1ccnc1 [O31],EC50,[1],10.6 µM
CO[C@H]1C[C@@H]2CC[C@@H](C)[C@@](O)(O2)C(=O)C(=O)N2CCCC[C@H]2C(=O)O[C@H]([C@H](C)C[C@@H]2CC[C@@H](O)[C@H](OC)C2)CC(=O)[C@H](C)/C=C(\C)[C@@H](O)[C@@H](OC)C(=O)[C@H](C)C[C@H](C)/C=C/C=C/C=C/1C [Rapa],"Luminescence signal for ATP measurement, day-1 Average",[8]; [11],454546
same,"Luminescence signal for ATP measurement, day-2 Average",[8]; [11],519403
same,"Luminescence signal for ATP measurement, day-3 Average",[8]; [11],545026
same,"Luminescence signal for ATP measurement, day-4 Average",[8]; [11],552160
same,ATP luminescence by day-5 normalized,[8]; Batch 1,53.3%
same,"Luminescence signal for ATP measurement, day-5 Average",[8]; [11],547771
same,"Luminescence signal for ATP measurement, day-1 Average",[8]; [12],239521
same,"Luminescence signal for ATP measurement, day-2 Average",[8]; [12],221640
same,"Luminescence signal for ATP measurement, day-3 Average",[8]; [12],244073
same,"Luminescence signal for ATP measurement, day-4 Average",[8]; [12],276911
same,ATP luminescence by day-5 normalized,[8]; Batch 2,47.3%
same,"Luminescence signal for ATP measurement, day-5 Average",[8]; [12],262898
